How the values were obtained:
[1] = system: Mushroom tyrosinase; test: Mushroom tyrosinase assay (conversion of L-Tyrosine to DOPAchrome); format: biochemical; conditions: 25° C., 30 min, absorbance 492 nm
Description: Mushroom tyrosinase and L-Tyrosine were obtained from Sigma-Aldrich, Inc. (St. Louis, Mo.). The enzyme activity was measured in buffer containing 100 mM phosphate buffer pH 6.8, 5% absolute ethanol, 2 micrograms/milliliter mushroom tyrosinase, and 0.2 mg/ml L-Tyrosine. The reaction (conversion of L-Tyrosine to DOPAchrome) was conducted in triplicates at 25° C. for 30 min, and absorbance was then measured at 492 nm. Kojic Acid was used as a positive control inhibitor in these assays. Percent change in tyrosinase activity relative to vehicle control was calculated.

[2] = system: B16 mouse melanoma cells; test: Inhibition of melanin production in B16 melanoma cell assay; format: cell-based; conditions: 4 days, alpha MSH 2 nanogram/ml, normalized to cell viability (MTT)
Description: The effects of various test compounds on melanin levels were determined by performing assays using B16 melanoma cells. These cells are known to constitutively produce melanin and are a commonly utilized and accepted model system for monitoring the inhibition of melanin synthesis. The B16 mouse melanoma cells were seeded (ATCC, cat. #: CRL-6475) into 96-well tissue culture-treated plates (BD Falcon) and treated with test actives or controls in phenol red free DMEM (Mediatech; cat. #: 17-205-CV) with 2 nanogram/ml of alpha MSH (Fluka; cat #:63605). The cells were examined for their ability to modulate pigment formation. […] Tests were performed in 6 replicates each. Following the treatment period (4 days), the level of pigment produced or melanin synthesized was quantified by reading the absorbance at 540 nm using a standard microplate reader (Tecan Group Ltd.).
After quantifying the amount of melanin, cell viability was determined using the MTT conversion method. The MTT conversion method measures the reduction of the MTT dye from a yellow colored, water-soluble, tetrazolium salt to a bluish-purple colored insoluble formazan precipitate by NAD(P)H-dependent microsomal dehydrogenase enzymes, which only function in viable cells. The intensity of the blue color is indicative of cell viability. After quantifying the amount of melanin pigment produced, the cells were exposed to MTT dye solution (1 mg/ml) for two to three hours. Formazan material was solubilized with reagent alcohol (95% ethanol: 5% isopropanol) and shaken on an orbital shaker for 15-30 minutes. MTT dye uptake and conversion by viable cells were determined by measuring the extracted formazan at 570 nm using a microplate reader. Total pigmentation was calculated, normalized to cell viability values and expressed as the average percent change in melanin activity relative to control of the six experiments performed.

Row | Compound | Tyrosinase Inhibition (percent change in tyrosinase activity compared to DMSO vehicle control) ([1]; concentration 0.0010%) [%] | B16 Assay Pigmentation Decrease (percent change in melanin compared to DMSO vehicle control) ([2]; concentration 0.0001%) [%] | Tyrosinase Inhibition (percent change in tyrosinase activity compared to DMSO vehicle control) ([1]; concentration 0.0100%) [%] | B16 Assay Pigmentation Decrease (percent change in melanin compared to DMSO vehicle control) ([2]; concentration 0.0010%) [%]
1 | Cc1cc(C)cc(Nc2nc(-c3ccc(O)cc3O)cs2)c1 [AV4662] | −46 | −57 | – | –
2 | CN1CCN(c2nc(-c3ccc(O)cc3O)cs2)CC1 [AV5370] | −75 | −10 | −59 | −77
